# Counter-ions that a name gives are not always drawn.
row,Compound,melting point
1,"CCOC(CCCc1ccc(NCc2ccc3cc(OS(C)(=O)=O)ccc3c2)cc1)C(=O)O (centres unmarked) (as salt: salt) [Example 46, 2-Ethoxy-5-[4-{6-methanesulfonyloxynapth-2-ylmethylamino}phenyl]pentatonic acid Arginine salt]",118 to 120 °C
2,"CCOC(Cc1ccc(NCCCn2ccc3ccccc32)cc1)C(=O)O (centres unmarked) (as salt: salt) [Example 47, 2-Ethoxy-3-[4-{3-(indol-1-yl)propylamino}phenyl]propanoic acid Arginine salt]",130 °C
3,"CO[C@@H](Cc1ccc(NCCCn2ccc3ccccc32)cc1)C(=O)O (as salt: salt) [Example 48, (S)-2-Methoxy-3-[4-{3-(indol-1-yl)propylamino}phenyl]propanoic acid Arginine salt]",105 °C
4,"CCO[C@@H](Cc1ccc(NCCCn2ccc3cc(OS(C)(=O)=O)ccc32)cc1)C(=O)O (as salt: salt) [Example 49, (S)-2-Ethoxy-3-[4-{3-(5-methanesulfonyloxyindol-1-yl)propylamino}phenyl]propanoic acid Arginine salt]",102 to 104 °C
5,"CO[C@@H](Cc1ccc(NCCCn2ccc3cc(OS(C)(=O)=O)ccc32)cc1)C(=O)O (as salt: salt) [Example 50, (S)-2-Methoxy-3-[4-{3-(5-methanesulfonyloxyindol-1-yl)propylamino}phenyl]propanoic acid Arginine salt]",102 to 104 °C
6,"CCOC(Cc1ccc(NCCCN2CCc3ccccc32)cc1)C(=O)O (centres unmarked) (as salt: salt) [Example 52, 2-Ethoxy-3-[4-{3-2,3-dihydroindol-1-yl)propylamino}phenyl]propanoic acid Arginine salt]",130 to 132 °C
7,"CCOC(Cc1ccc(NCC2CCc3cc(OS(C)(=O)=O)ccc3C2)cc1)C(=O)O (centres unmarked) (as salt: salt) [Example 53, 2-Ethoxy-3-[4-{(6-methanesulfonyloxy-1,2,3,4-tetrahydronapth-2-yl)methylamino}phenyl]propanoic acid Arginine salt]",96 to 98 °C
8,"CCOC(Cc1ccc(NCCCC2CCc3cc(OS(C)(=O)=O)ccc3C2)cc1)C(=O)O (centres unmarked) (as salt: salt) [Example 54, 2-Ethoxy-3-[4-{3-(6-methanesulfonyloxy-1,2,3,4-tetrahydronapth-2-yl)propylamino}phenyl]propanoic acid Arginine salt]",115 to 117 °C
9,"CCOC(Cc1ccc(NCCCN2CCCc3ccccc32)cc1)C(=O)O (centres unmarked) (as salt: salt) [Example 55, 2-Ethoxy-3-[4-{3-1,2,3,4-tetrahydroquinolyn-1-yl)propylamino}phenyl]propanoic acid Arginine salt]",134 to 136 °C
10,"CCOC(=O)C(C)(C)Oc1ccc(NCc2ccc3cc(OS(C)(=O)=O)ccc3c2)cc1 [Example 4, Ethyl 2-methyl-2-[4-{6-methanesulfonyloxynapth-2-ylmethylamino}phenoxy]propanoate]",116 to 118 °C
11,"CC(C)(Oc1cccc(CCCOc2ccc(OS(C)(=O)=O)cc2)c1)C(=O)O [Example 42, 2-Methyl-2-[3-{3-(4-methanesulfonyloxyphenoxy)propyl}phenoxy]propanoic acid]",93 to 95 °C
12,"CC(C)(Oc1ccc(CCCOc2ccc(-c3ccccc3)cc2)cc1)C(=O)O [Example 63, 2-{4-[3-(Biphenyl-4-yloxy)-propyl]-phenoxy}-2-methyl-propanoic acid]",130 to 133 °C
13,"CC(C)(C)OC(=O)Nc1ccc(OCCCc2ccc(OC(C)(C)C(=O)O)cc2)cc1 [Example 96, 2-Methyl-2-[4-{3-(4-(tert-butyloxycarbonylamino)phenoxy)propyl}phenoxy]propanoic acid]",132 to 134 °C
14,"CC(C)(Oc1ccc(CCCOc2ccc(NS(C)(=O)=O)cc2)cc1)C(=O)O [Example 97, 2-Methyl-2-[4-{3-(4-(methanesulfonylamino)phenoxy)propyl}phenoxy]propanoic acid]",122 to 124 °C
